What was measured:
[1] = target: T1, SMARCA2-HiBiT HeLa cells (protein which is expressed from the SMARCA2 gene) (Homo sapiens, UniProt P51531); assay: SMARCA2 degradation assay (HiBiT-fusion HeLa cell line, 24 h, luminescence); type: cell-based
T1 construct: protein which is expressed from the SMARCA2 and SMARCA4 genes; host or cells: HeLa (SMARCA2-HiBiT engineered line)
Experimental: (§1) SMARCA2 and SMARCA4 Degradation Assay
(§2) Degradation of protein which is expressed from the SMARCA2 and SMARCA4 genes was monitored using engineered HiBiT-fusion HeLa cell lines from Promega. In brief, 384-well white opaque plates (Greiner) were seeded with SMARCA2-HiBiT or SMARCA4-HiBiT HeLa cells at 8,000 cells/well and incubated overnight at 37° C. to allow cell attachment. After overnight incubation, test compounds were added in a 10-point dilution series (typically 10 μM to 300 pM) using a TECAN D300e Digital Dispenser, and plates were subsequently incubated for 24 hours at 37° C. 24-hours post-treatment, protein levels were quantified with the addition of HiBiT lytic buffer, LgBiT protein, and HiBiT substrate, according to manufacturer's specifications. Plates were incubated on an orbital plate shaker for 10 minutes at room temperature. Resulting luminescent values were read out using a ClarioStar plate reader and used to construct dose-response curves and calculation of degradation DC50s (GraphPad Prism).
(§3) Activity of the tested compounds is provided in Table 4 below as follows: A=DC50<0.050 μM; B=0.05 μM<DC50<0.50 μM; C=<0.5 μM<DC50<5.0 μM; D=DC50>5.0 μM. For SMARCA2 and SMARCA4 degradation activity @1 μM, +++=>70%; ++=30-70%; +=<30%.

[2] = target: T2, SMARCA4-HiBiT HeLa cells (protein which is expressed from the SMARCA4 gene) (Homo sapiens, UniProt P51532); assay: SMARCA4 degradation assay (HiBiT-fusion HeLa cell line, 24 h, luminescence); type: cell-based
T2 construct: protein which is expressed from the SMARCA2 and SMARCA4 genes; host or cells: HeLa (SMARCA4-HiBiT engineered line)
Experimental: as §1, §2, §3

T1 sequence (P51531 whole entry, the tested form may be a part): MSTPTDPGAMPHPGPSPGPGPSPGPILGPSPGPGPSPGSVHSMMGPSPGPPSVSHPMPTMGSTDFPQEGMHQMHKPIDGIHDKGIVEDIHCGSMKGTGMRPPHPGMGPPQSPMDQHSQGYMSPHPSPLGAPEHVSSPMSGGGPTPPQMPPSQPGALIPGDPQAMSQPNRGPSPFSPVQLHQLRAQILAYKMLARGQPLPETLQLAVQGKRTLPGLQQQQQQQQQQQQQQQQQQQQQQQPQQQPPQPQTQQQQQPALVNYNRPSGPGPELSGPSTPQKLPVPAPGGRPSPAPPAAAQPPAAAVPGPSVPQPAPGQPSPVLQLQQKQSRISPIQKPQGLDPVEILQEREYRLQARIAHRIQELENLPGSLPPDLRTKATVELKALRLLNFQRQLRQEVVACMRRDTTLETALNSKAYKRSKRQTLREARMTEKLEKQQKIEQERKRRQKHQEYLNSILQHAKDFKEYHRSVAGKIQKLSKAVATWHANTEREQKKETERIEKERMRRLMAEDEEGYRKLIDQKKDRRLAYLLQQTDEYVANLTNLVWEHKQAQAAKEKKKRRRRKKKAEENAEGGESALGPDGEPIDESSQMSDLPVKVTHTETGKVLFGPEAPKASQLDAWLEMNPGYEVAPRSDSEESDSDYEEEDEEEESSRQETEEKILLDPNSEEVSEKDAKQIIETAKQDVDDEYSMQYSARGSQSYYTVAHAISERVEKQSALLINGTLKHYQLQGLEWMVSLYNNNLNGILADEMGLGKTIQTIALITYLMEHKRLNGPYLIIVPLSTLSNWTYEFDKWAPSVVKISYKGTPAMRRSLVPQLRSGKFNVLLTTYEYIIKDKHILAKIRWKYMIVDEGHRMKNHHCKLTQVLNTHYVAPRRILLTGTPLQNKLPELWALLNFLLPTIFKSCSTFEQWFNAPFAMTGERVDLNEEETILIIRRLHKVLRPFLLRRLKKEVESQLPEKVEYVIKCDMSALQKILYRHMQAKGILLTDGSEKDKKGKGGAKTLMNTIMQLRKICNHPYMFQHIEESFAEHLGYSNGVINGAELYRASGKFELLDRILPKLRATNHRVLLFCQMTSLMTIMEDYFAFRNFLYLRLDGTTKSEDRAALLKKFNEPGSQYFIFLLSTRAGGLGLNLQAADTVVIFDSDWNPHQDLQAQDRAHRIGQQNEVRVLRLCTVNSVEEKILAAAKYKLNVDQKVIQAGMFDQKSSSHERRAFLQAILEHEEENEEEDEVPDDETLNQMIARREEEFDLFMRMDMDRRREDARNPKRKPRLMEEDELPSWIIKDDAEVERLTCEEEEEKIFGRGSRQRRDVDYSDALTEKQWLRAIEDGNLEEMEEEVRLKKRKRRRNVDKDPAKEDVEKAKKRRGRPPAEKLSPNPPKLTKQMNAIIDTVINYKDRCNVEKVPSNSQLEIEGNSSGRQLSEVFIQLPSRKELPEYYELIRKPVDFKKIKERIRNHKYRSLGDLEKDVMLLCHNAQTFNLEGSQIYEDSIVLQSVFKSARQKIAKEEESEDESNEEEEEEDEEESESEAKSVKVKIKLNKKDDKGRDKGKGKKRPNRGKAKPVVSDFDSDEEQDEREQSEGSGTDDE
T2 sequence (P51532 whole entry, the tested form may be a part): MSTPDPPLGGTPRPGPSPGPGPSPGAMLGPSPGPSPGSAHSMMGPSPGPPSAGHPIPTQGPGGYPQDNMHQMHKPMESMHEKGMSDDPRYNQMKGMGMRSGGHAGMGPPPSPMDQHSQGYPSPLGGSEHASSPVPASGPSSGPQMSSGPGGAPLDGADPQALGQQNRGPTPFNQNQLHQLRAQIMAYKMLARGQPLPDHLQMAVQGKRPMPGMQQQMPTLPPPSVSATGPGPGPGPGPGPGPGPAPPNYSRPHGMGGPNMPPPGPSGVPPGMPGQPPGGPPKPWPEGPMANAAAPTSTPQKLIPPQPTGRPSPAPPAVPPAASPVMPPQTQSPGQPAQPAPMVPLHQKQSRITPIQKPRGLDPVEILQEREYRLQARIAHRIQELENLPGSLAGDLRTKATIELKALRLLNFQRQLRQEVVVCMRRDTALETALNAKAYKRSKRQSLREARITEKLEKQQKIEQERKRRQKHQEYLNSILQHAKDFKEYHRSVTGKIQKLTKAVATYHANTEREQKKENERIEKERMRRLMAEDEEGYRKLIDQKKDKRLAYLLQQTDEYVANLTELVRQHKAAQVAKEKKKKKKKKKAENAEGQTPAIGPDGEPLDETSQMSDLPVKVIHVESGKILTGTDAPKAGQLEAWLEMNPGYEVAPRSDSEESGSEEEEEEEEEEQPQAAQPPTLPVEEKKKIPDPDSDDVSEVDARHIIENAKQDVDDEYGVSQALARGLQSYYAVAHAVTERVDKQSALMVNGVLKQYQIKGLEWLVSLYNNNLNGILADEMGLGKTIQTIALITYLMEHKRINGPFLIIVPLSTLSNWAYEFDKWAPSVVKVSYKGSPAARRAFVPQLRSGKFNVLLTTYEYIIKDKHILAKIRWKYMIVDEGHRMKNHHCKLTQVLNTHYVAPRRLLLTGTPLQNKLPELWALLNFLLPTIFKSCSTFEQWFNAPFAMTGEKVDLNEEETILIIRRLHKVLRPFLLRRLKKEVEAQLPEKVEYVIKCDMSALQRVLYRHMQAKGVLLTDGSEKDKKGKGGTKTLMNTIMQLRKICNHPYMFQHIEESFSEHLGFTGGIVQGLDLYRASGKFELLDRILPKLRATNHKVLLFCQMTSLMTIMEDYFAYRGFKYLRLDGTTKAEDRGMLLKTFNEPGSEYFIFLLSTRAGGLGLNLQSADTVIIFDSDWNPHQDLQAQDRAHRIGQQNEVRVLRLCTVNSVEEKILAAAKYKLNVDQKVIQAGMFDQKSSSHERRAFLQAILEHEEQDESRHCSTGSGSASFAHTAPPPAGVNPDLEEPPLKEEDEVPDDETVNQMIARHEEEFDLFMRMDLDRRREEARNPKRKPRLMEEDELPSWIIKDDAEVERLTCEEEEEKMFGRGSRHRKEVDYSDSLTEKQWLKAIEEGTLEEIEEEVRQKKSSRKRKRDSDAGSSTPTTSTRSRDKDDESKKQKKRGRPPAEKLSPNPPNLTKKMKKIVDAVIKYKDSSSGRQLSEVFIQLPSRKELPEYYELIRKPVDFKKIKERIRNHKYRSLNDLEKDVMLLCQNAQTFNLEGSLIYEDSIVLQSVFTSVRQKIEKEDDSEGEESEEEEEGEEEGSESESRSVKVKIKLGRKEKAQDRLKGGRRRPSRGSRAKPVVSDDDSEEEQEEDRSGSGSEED

Nc1nnc(-c2ccccc2O)cc1N1C[C@@H]2C[C@H]1CN2c1ccnc(C#CCNC(=O)c2cc3ncccn3n2)n1 [Compound P-30, N-(3-(4-((1S,4S)-5-(3-amino-6-(2-hydroxyphenyl)pyridazin-4-yl)-2,5-diazabicyclo[2.2.1]heptan-2-yl)pyrimidin-2-yl)prop-2-yn-1-yl)pyrazolo[1,5-a]pyrimidine-2-carboxamide]
DC50 [1]: 500 to 5000 nM
SMARCA2 % Degradation @ 1 μM [1]: ++ (++=30-70%)
DC50 [2]: 500 to 5000 nM
inhibition at 1 µM [2]: 30 to 70%

Nc1nnc(-c2ccccc2O)cc1N1CC2(CCN(c3ccnc(C#CCNC(=O)c4cc5ncccn5n4)n3)CC2)C1 [Compound P-31, N-(3-(4-(2-(3-amino-6-(2-hydroxyphenyl)pyridazin-4-yl)-2,7-diazaspiro[3.5]nonan-7-yl)pyrimidin-2-yl)prop-2-yn-1-yl)pyrazolo[1,5-a]pyrimidine-2-carboxamide]
DC50 [1]: 50 to 500 nM
SMARCA2 % Degradation @ 1 μM [1]: ++ (++=30-70%)
DC50 [2]: 50 to 500 nM
inhibition at 1 µM [2]: 30 to 70%

Nc1nnc(-c2ccccc2O)cc1N1CCC2(CCN(c3ccnc(C#CCNC(=O)c4cc5ncccn5n4)n3)C2)CC1 [Compound P-32, N-(3-(4-(8-(3-amino-6-(2-hydroxyphenyl)pyridazin-4-yl)-2,8-diazaspiro[4.5]decan-2-yl)pyrimidin-2-yl)prop-2-yn-1-yl)pyrazolo[1,5-a]pyrimidine-2-carboxamide]
DC50 [1]: 50 to 500 nM
SMARCA2 % Degradation @ 1 μM [1]: ++ (++=30-70%)
DC50 [2]: 50 to 500 nM
inhibition at 1 µM [2]: 30 to 70%

Nc1nnc(-c2ccccc2O)cc1N1CCCC2(CCN(c3ccnc(C#CCNC(=O)c4cc5ncccn5n4)n3)CC2)C1 [Compound P-33, N-(3-(4-(2-(3-amino-6-(2-hydroxyphenyl)pyridazin-4-yl)-2,9-diazaspiro[5.5]undecan-9-yl)pyrimidin-2-yl)prop-2-yn-1-yl)pyrazolo[1,5-a]pyrimidine-2-carboxamide]
DC50 [1]: 50 to 500 nM
SMARCA2 % Degradation @ 1 μM [1]: ++ (++=30-70%)
DC50 [2]: 50 to 500 nM
inhibition at 1 µM [2]: 30 to 70%

Nc1nnc(-c2ccccc2O)cc1N1CCC2(CCN(c3ccnc(C#CCNC(=O)c4cc5ncccn5n4)n3)CC2)C1 [Compound P-34, N-(3-(4-(2-(3-amino-6-(2-hydroxyphenyl)pyridazin-4-yl)-2,8-diazaspiro[4.5]decan-8-yl)pyrimidin-2-yl)prop-2-yn-1-yl)pyrazolo[1,5-a]pyrimidine-2-carboxamide]
DC50 [1]: 50 to 500 nM
SMARCA2 % Degradation @ 1 μM [1]: ++ (++=30-70%)
DC50 [2]: 50 to 500 nM
inhibition at 1 µM [2]: 30 to 70%

Nc1nnc(-c2ccccc2O)cc1N1CCC2(CCCN(c3ccnc(C#CCNC(=O)c4cc5ncccn5n4)n3)C2)CC1 [Compound P-35, N-(3-(4-(9-(3-amino-6-(2-hydroxyphenyl)pyridazin-4-yl)-2,9-diazaspiro[5.5]undecan-2-yl)pyrimidin-2-yl)prop-2-yn-1-yl)pyrazolo[1,5-a]pyrimidine-2-carboxamide]
DC50 [1]: 50 to 500 nM
SMARCA2 % Degradation @ 1 μM [1]: ++ (++=30-70%)
DC50 [2]: 50 to 500 nM
inhibition at 1 µM [2]: > 70%

Nc1nnc(-c2ccccc2O)cc1N1CC2CCN(c3ccnc(C#CCNC(=O)c4cc5ncccn5n4)n3)C2C1 (stereo not drawn) [Compound P-36, N-(3-(4-(5-(3-amino-6-(2-hydroxyphenyl)pyridazin-4-yl)hexahydropyrrolo[3,4-b]pyrrol-1(2H)-yl)pyrimidin-2-yl)prop-2-yn-1-yl)pyrazolo[1,5-a]pyrimidine-2-carboxamide]
DC50 [1]: 50 to 500 nM
SMARCA2 % Degradation @ 1 μM [1]: +++ (+++=>70%)
DC50 [2]: 50 to 500 nM
inhibition at 1 µM [2]: > 70%

Nc1nnc(-c2ccccc2O)cc1N1CCC2CCN(c3ccnc(C#CCNC(=O)c4cc5ncccn5n4)n3)C2C1 (stereo not drawn) [Compound P-37, N-(3-(4-(6-(3-amino-6-(2-hydroxyphenyl)pyridazin-4-yl)octahydro-1H-pyrrolo[2,3-c]pyridin-1-yl)pyrimidin-2-y1)prop-2-yn-1-yl)pyrazolo[1,5-a]pyrimidine-2-carboxamide]
DC50 [1]: 50 to 500 nM
SMARCA2 % Degradation @ 1 μM [1]: ++ (++=30-70%)
DC50 [2]: 50 to 500 nM
inhibition at 1 µM [2]: 30 to 70%

Nc1nnc(-c2ccccc2O)cc1N1CCC2C1CCCN2c1ccnc(C#CCNC(=O)c2cc3ncccn3n2)n1 (stereo not drawn) [Compound P-38, N-(3-(4-(1-(3-amino-6-(2-hydroxyphenyl)pyridazin-4-yl)octahydro-4H-pyrrolo[3,2-b]pyridin-4-yl)pyrimidin-2-yl)prop-2-yn-1-yl)pyrazolo[1,5-a]pyrimidine-2-carboxamide]
DC50 [1]: 500 to 5000 nM
SMARCA2 % Degradation @ 1 μM [1]: + (+=<30%)
DC50 [2]: 500 to 5000 nM
inhibition at 1 µM [2]: < 30%

CC1CN(c2ccnc(C#CCN)n2)CCN(c2cc(-c3ccccc3O)nnc2N)C1 (stereo not drawn) [Compound P-39, 2-(6-amino-5-(4-(2-(3-aminoprop-1-yn-1-yl)pyrimidin-4-yl)-6-methyl-1,4-diazepan-1-yl)pyridazin-3-yl)phenol]
DC50 [1]: 500 to 5000 nM
SMARCA2 % Degradation @ 1 μM [1]: + (+=<30%)
DC50 [2]: 500 to 5000 nM
inhibition at 1 µM [2]: < 30%

CC1CN(c2ccnc(C#CCN)n2)CCCN1c1cc(-c2ccccc2O)nnc1N (stereo not drawn) [Compound P-40, 2-(6-amino-5-(4-(2-(3-aminoprop-1-yn-1-yl)pyrimidin-4-yl)-2-methyl-1,4-diazepan-1-yl)pyridazin-3-yl)phenol]
DC50 [1]: 500 to 5000 nM
SMARCA2 % Degradation @ 1 μM [1]: + (+=<30%)
DC50 [2]: 500 to 5000 nM
inhibition at 1 µM [2]: < 30%

Nc1nnc(-c2ccccc2O)cc1N1CC2CN(c3ccnc(C#CCNC(=O)c4cc5ncccn5n4)n3)CC2C1 (stereo not drawn) [Compound P-41, N-(3-(4-(5-(3-amino-6-(2-hydroxyphenyl)pyridazin-4-yl)hexahydropyrrolo[3,4-c]pyrrol-2(1H)-yl)pyrimidin-2-yl)prop-2-yn-1-yl)pyrazolo[1,5-a]pyrimidine-2-carboxamide]
DC50 [1]: 50 to 500 nM
SMARCA2 % Degradation @ 1 μM [1]: ++ (++=30-70%)
DC50 [2]: 50 to 500 nM
inhibition at 1 µM [2]: 30 to 70%

Nc1nnc(-c2ccccc2O)cc1N1CCC2(CCN(c3ccnc(C#CCNC(=O)c4cc5ncccn5n4)n3)CC2)CC1 [Compound P-42, N-(3-(4-(9-(3-amino-6-(2-hydroxyphenyl)pyridazin-4-yl)-3,9-diazaspiro[5.5]undecan-3-yl)pyrimidin-2-yl)prop-2-yn-1-yl)pyrazolo[1,5-a]pyrimidine-2-carboxamide]
DC50 [1]: 50 to 500 nM
SMARCA2 % Degradation @ 1 μM [1]: ++ (++=30-70%)
DC50 [2]: 50 to 500 nM
inhibition at 1 µM [2]: 30 to 70%

Nc1nnc(-c2ccccc2O)cc1N1CC2CN(c3ccnc(C#CCNC(=O)c4cc5ncccn5n4)n3)C2C1 (stereo not drawn) [Compound P-43, N-(3-(4-(3-(3-amino-6-(2-hydroxyphenyl)pyridazin-4-yl)-3,6-diazabicyclo[3.2.0]heptan-6-yl)pyrimidin-2-yl)prop-2-yn-1-yl)pyrazolo[1,5-a]pyrimidine-2-carboxamide]
DC50 [1]: 500 to 5000 nM
SMARCA2 % Degradation @ 1 μM [1]: ++ (++=30-70%)
DC50 [2]: 50 to 500 nM
inhibition at 1 µM [2]: 30 to 70%

Nc1nnc(-c2ccccc2O)cc1N1CCN(c2ccnc(C#CCNC(=O)c3cc4ncccn4n3)n2)CC(F)C1 (stereo not drawn) [Compound P-44, N-(3-(4-(4-(3-amino-6-(2-hydroxyphenyl)pyridazin-4-yl)-6-fluoro-1,4-diazepan-1-yl)pyrimidin-2-yl)prop-2-yn-1-yl)pyrazolo[1,5-a]pyrimidine-2-carboxamide]
DC50 [1]: 500 to 5000 nM
SMARCA2 % Degradation @ 1 μM [1]: ++ (++=30-70%)
DC50 [2]: 500 to 5000 nM
inhibition at 1 µM [2]: 30 to 70%

Nc1nnc(-c2ccccc2O)cc1N1CC2CN(c3ccnc(C#CCNC(=O)c4cc5ncccn5n4)n3)CC21 (stereo not drawn) [Compound P-45, N-(3-(4-(6-(3-amino-6-(2-hydroxyphenyl)pyridazin-4-yl)-3,6-diazabicyclo[3.2.0]heptan-3-yl)pyrimidin-2-yl)prop-2-yn-1-yl)pyrazolo[1,5-a]pyrimidine-2-carboxamide]
DC50 [1]: 500 to 5000 nM
SMARCA2 % Degradation @ 1 μM [1]: + (+=<30%)
DC50 [2]: 500 to 5000 nM
inhibition at 1 µM [2]: < 30%

CC1CCN(c2cc(-c3ccccc3O)nnc2N)CCN1c1ccnc(C#CCNC(=O)c2cc3ncccn3n2)n1 (stereo not drawn) [Compound P-46, N-(3-(4-(4-(3-amino-6-(2-hydroxyphenyl)pyridazin-4-yl)-7-methyl-1,4-diazepan-1-yl)pyrimidin-2-yl)prop-2-yn-1-yl)pyrazolo[1,5-a]pyrimidine-2-carboxamide]
DC50 [1]: 50 to 500 nM
SMARCA2 % Degradation @ 1 μM [1]: +++ (+++=>70%)
DC50 [2]: 50 to 500 nM
inhibition at 1 µM [2]: > 70%

Nc1nnc(-c2ccccc2O)cc1N1CC[C@@H]2[C@H]1CN2c1ccnc(C#CCNC(=O)c2cc3ncccn3n2)n1 [Compound P-47, N-(3-(4-((1R,5R)-2-(3-amino-6-(2-hydroxyphenyl)pyridazin-4-yl)-2,6-diazabicyclo[3.2.0]heptan-6-yl)pyrimidin-2-yl)prop-2-yn-1-yl)pyrazolo[1,5-a]pyrimidine-2-carboxamide]
DC50 [1]: 500 to 5000 nM
SMARCA2 % Degradation @ 1 μM [1]: + (+=<30%)
DC50 [2]: 500 to 5000 nM
inhibition at 1 µM [2]: < 30%

From patent US20260265238A1, “COMPOUNDS AND PHARMACEUTICAL COMPOSITIONS THAT DEGRADE SWI/SNF-RELATED MATRIX-ASSOCIATED ACTIN-DEPENDENT REGULATOR OF CHROMATIN SUBFAMILY A” (Plexium, Inc., priority 2023, published 2026)
